# Reference: patent publication US5241047A, “Synthetic peptides and mixtures thereof for detecting HIV antibodies” (BioChem Pharma Inc., priority 1990, dated 1993)
# Positions of bridges follow the written chain, without caps; N, C: chain ends. Residues, ends and D or L forms follow the SMILES beside them.
# Legend:
# Format in all cases: binding, human
# [1] = test system: HIV-2 antibodies; experiment: ELISA with peptide-coated wells, HIV-2 seropositive plasma pool serially diluted; settings: Test 314
# Procedure: (§1) A preferred convenient and classical technique for the determination of antibodies against HIV-1 or HIV-2 using a peptide or a peptide mixture of the present invention is an enzyme-linked immunosorbent assay (ELISA). In this assay, for example, a peptide, peptide mixture or combination of the present invention is adsorbed onto, or covalently coupled to, the wells of a microtiter plate. The wells are then treated with the sera or analyte to be tested. After washing, antihuman IgG or antihuman IgM labeled with peroxidase is added to the wells. The determination of the peroxidase is performed with a corresponding substrate, e.g., with o-phenylene diamine. Without departing from the usefulness of the illustrative assay, the peroxidase can be exchanged by another label, e.g., by a radioactive, fluorescence chemiluminescence or infrared emitting label.
# (§2) O.D. Values were obtained at 450 nm and the blank values measured with the sample dilution buffer were not subtracted.
# (§3) Samples NEIA-2*2, BBI-1-162 to 168, 87B140, 87L139, 87V103 are all negative for HIV antibodies. Sample LSPQ-S9-1 is an early seroconverter (HIV-1). The series labeled CAP-113 to CAP-120 corresponds to a pool of seven HIV-1 positive plasma samples serially diluted with an HIV-negative plasma. CAP-113 is the pool diluted 50-fold with the HIV-negative plasma; CAP-114 is diluted 100-fold; CAP-115 is diluted 200-fold; etc. Similarly, the series labeled CAP-222 to CAP-230 corresponds to a pool of seven HIV-2 confirmed seropositive plasma samples. CAP-222 is diluted by 50 with an HIV-negative plasma; CAP-223 by 100; etc. Before the assay is done, each sample, including the CAP-series, is further diluted by 50 with the sample dilution buffer. In these tests, the cut-off for seropositivity is defined as the sum of the O.D. value for sample NEIA-2*2 plus 0.100.
# (§4) Each well of the microtiter plate is saturated with 100 μl of a solution containing a peptide or mixture of peptides (5 μg/ml) and left overnight. The wells are emptied and washed twice with a washing buffer (Tris, 0.043M; NaCl, 0.5M; thimerosal, 0.01% w/v; Tween 20, 0.05% v/v; pH 7.4). The wells are then saturated with 0.35 ml of washing buffer for 1 hr. at 37° C. and washed once with the same buffer. Serum samples to be analyzed are diluted with specimen buffer (washing buffer plus casein, 0.05% w/v). The wells are rinsed with washing buffer prior to the addition of the diluted serum sample (0.1 ml). These are left to incubate for 1 hr. at room temperature. The wells are then emptied, washed twice rapidly and then once for two minutes with washing buffer. […] The wells are then emptied and washed twice rapidly with washing buffer and then five times in which the buffer was in contact with the well 2 minutes per washing. The substrate solution (3,3',5,5'-tetramethylbenzidine, 8 mg per ml of DMSO) is diluted with 100 volumes 0.1M citrate-acetate buffer, pH 5.6 containing 0.1% v/v of 30% H2 O2 and added to each well (0.1 ml per well). After 10 minutes the contents of each well is treated with 0.1 ml 2N H2 SO4 and the optical density read at 450 nm. All determinations are done in duplicate.
# (§5) Peptide cocktails were prepared by mixing together equal volumes of two peptide solutions each at 10 ug/ml. One cocktail used peptides BCH-87c and BCH-202c and the other cocktail was a mixture of BCH-87ck and BCH-202ck. Each cocktail was used to coat two series of plates as described earlier.
# [2] = test system: HIV antibodies; experiment: ELISA with peptide-coated wells, samples negative for HIV antibodies or not described
# Procedure: as §1, §2, §3, §4, §5
# [3] = test system: HIV-1 antibodies; experiment: ELISA with peptide-coated wells, HIV-1 antibody positive samples (diluted plasma pool, seroconversion samples)
# Procedure: as §1, §2, §3
# as §4, with “duplicate. […]” for “duplicate.”
# [4] = Test 350, sample 2-87-L-139 (negative for HIV antibodies)
# [5] = Test 350, sample 2-87-V-103 (negative for HIV antibodies)
# [6] = Test 350, sample 89-D-307 (not described)
# [7] = Test 350, sample NEIA-2*2 (negative for HIV antibodies)
# [8] = Test 350, sample CAP-10 (progressively higher dilutions)
# [9] = Test 350, sample CAP-11 (progressively higher dilutions)
# [10] = Test 350, sample CAP-12 (progressively higher dilutions)
# [11] = Test 350, sample CAP-13 (progressively higher dilutions)
# [12] = Test 350, sample CAP-14 (progressively higher dilutions)
# [13] = Test 350, sample CAP-15 (progressively higher dilutions)
# [14] = Test 350, sample CAP-16 (progressively higher dilutions)
# [15] = Test 350, sample CAP-17 (progressively higher dilutions)
# [16] = Test 350, sample CAP-18 (progressively higher dilutions)
# [17] = Test 350, sample CAP-19 (progressively higher dilutions)
smiles,measurement,setting,value
CC[C@H](C)[C@H](NC(=O)CNC(=O)[C@H](CC(C)C)NC(=O)[C@H](CC(C)C)NC(=O)[C@H](CCC(N)=O)NC(=O)[C@H](CCC(N)=O)NC(=O)[C@H](CC(=O)O)NC(=O)[C@H](CCCCN)NC(=O)[C@H](CC(C)C)NC(=O)[C@H](Cc1ccc(O)cc1)NC(=O)[C@H](CCCNC(=N)N)NC(=O)[C@H](CCC(=O)O)NC(=O)[C@@H](NC(=O)[C@H](C)NC(=O)[C@H](CC(C)C)NC(=O)[C@@H](NC(=O)[C@@H](N)CCCCN)[C@@H](C)CC)C(C)C)C(=O)N[C@@H](Cc1c[nH]c2ccccc12)C(=O)NCC(=O)N[C@H]1CSSC[C@@H](C(=O)N[C@H](C(=O)N[C@H](C(=O)N[C@@H](C)C(=O)N[C@H](C(=O)N2CCC[C@H]2C(=O)N[C@@H](Cc2c[nH]c3ccccc23)C(=O)N[C@@H](CC(N)=O)C(=O)N[C@@H](C)C(=O)N[C@@H](CO)C(=O)O)C(C)C)[C@@H](C)O)[C@@H](C)O)NC(=O)[C@H]([C@@H](C)CC)NC(=O)[C@H](CC(C)C)NC(=O)[C@H](CCCCN)NC(=O)CNC(=O)[C@H](CO)NC1=O [BCH-87ck] (H-KILAVERYLKDQQLLGIWGCSGKLICTTAVPWNAS-OH; disulfide 20-26),O.D. 450 nm,[1]; sample CAP-222 (HIV-2 positive plasma pool diluted by 50),0.069
same,O.D. 450 nm,[1]; sample CAP-223 (HIV-2 positive pool diluted by 100),0.060
same,O.D. 450 nm,"[1]; sample CAP-224 (HIV-2 positive pool, serial dilution)",0.054
same,O.D. 450 nm,"[1]; sample CAP-225 (HIV-2 positive pool, serial dilution)",0.050
same,O.D. 450 nm,"[1]; sample CAP-226 (HIV-2 positive pool, serial dilution)",0.050
same,O.D. 450 nm,"[1]; sample CAP-227 (HIV-2 positive pool, serial dilution)",0.043
same,O.D. 450 nm,"[1]; sample CAP-228 (HIV-2 positive pool, serial dilution)",0.042
same,O.D. 450 nm,"[1]; sample CAP-230 (HIV-2 positive pool, serial dilution)",0.049
same,O.D. 450 nm,"[2]; Test 314, sample BBI-1-162 (negative for HIV antibodies)",0.015
same,O.D. 450 nm,"[2]; Test 314, sample BBI-1-169 (not described)",0.090
same,O.D. 450 nm,"[2]; Test 314, sample BBI-1-172 (not described)",0.019
same,O.D. 450 nm,"[2]; Test 314, sample NEIA-2*2 (negative for HIV antibodies)",0.050
same,O.D. 450 nm,[2]; [4],0.409
same,O.D. 450 nm,[2]; [5],0.015
same,O.D. 450 nm,[2]; [6],0.022
same,O.D. 450 nm,[2]; [7],0.034
same,O.D. 450 nm,"[3]; Test 314, sample CAP-113 (HIV-1 positive plasma pool diluted 50-fold)",> 2.8
same,O.D. 450 nm,"[3]; Test 314, sample CAP-114 (HIV-1 positive pool diluted 100-fold)",> 2.8
same,O.D. 450 nm,"[3]; Test 314, sample CAP-115 (HIV-1 positive pool diluted 200-fold)",2.593
same,O.D. 450 nm,"[3]; Test 314, sample CAP-116 (HIV-1 positive pool, serial dilution)",1.871
same,O.D. 450 nm,"[3]; Test 314, sample CAP-117 (HIV-1 positive pool, serial dilution)",1.158
same,O.D. 450 nm,"[3]; Test 314, sample CAP-118 (HIV-1 positive pool, serial dilution)",0.679
same,O.D. 450 nm,"[3]; Test 314, sample CAP-119 (HIV-1 positive pool, serial dilution)",0.392
same,O.D. 450 nm,"[3]; Test 314, sample CAP-120 (HIV-1 positive pool, serial dilution)",0.229
same,O.D. 450 nm,[3]; [8],> 2.8
same,O.D. 450 nm,[3]; [9],> 2.8
same,O.D. 450 nm,[3]; [10],2.735
same,O.D. 450 nm,[3]; [11],1.676
same,O.D. 450 nm,[3]; [12],1.089
same,O.D. 450 nm,[3]; [13],0.643
same,O.D. 450 nm,[3]; [14],0.274
same,O.D. 450 nm,[3]; [15],0.191
same,O.D. 450 nm,[3]; [16],0.114
same,O.D. 450 nm,[3]; [17],0.053
CC[C@H](C)[C@H](NC(=O)[C@H](CC(C)C)NC(=O)[C@H](CCCCN)NC(=O)CNC(=O)[C@H](CO)NC(=O)[C@H](C)NC(=O)[C@H](CC(N)=O)NC(=O)[C@H](Cc1c[nH]c2ccccc12)NC(=O)[C@@H]1CCCN1C(=O)[C@@H](NC(=O)[C@H](C)NC(=O)[C@@H](NC(=O)[C@@H](NC(=O)[C@@H]1CSSC[C@H](NC(=O)CNC(=O)[C@H](Cc2c[nH]c3ccccc23)NC(=O)[C@@H](NC(=O)CNC(=O)[C@H](CC(C)C)NC(=O)[C@H](CC(C)C)NC(=O)[C@H](CCC(N)=O)NC(=O)[C@H](CCC(N)=O)NC(=O)[C@H](CC(=O)O)NC(=O)[C@H](CCCCN)NC(=O)[C@H](CC(C)C)NC(=O)[C@H](Cc2ccc(O)cc2)NC(=O)[C@H](CCCNC(=N)N)NC(=O)[C@H](CCC(=O)O)NC(=O)[C@@H](NC(=O)[C@H](C)NC(=O)[C@H](CC(C)C)NC(=O)[C@@H](NC(=O)[C@@H](N)CCCCN)[C@@H](C)CC)C(C)C)[C@@H](C)CC)C(=O)N[C@@H](CO)C(=O)NCC(=O)N[C@@H](CCCCN)C(=O)N[C@@H](CC(C)C)C(=O)N[C@@H]([C@@H](C)CC)C(=O)N1)[C@@H](C)O)[C@@H](C)O)C(C)C)C(=O)O [BCH-408] (H-KILAVERYLKDQQLLGIWGCSGKLICTTAVPWNASGKLI-OH; disulfide 20-26),O.D. 450 nm,[2]; [4],0.025
same,O.D. 450 nm,[2]; [5],0.014
same,O.D. 450 nm,[2]; [6],0.029
same,O.D. 450 nm,[2]; [7],0.035
same,sensitivity compared to the other peptides,"[3]; Table 3, versus BCH-87c, BCH-87ck, BCH-266 at progressively higher dilutions",superior sensitivity
same,O.D. 450 nm,[3]; [8],> 2.8
same,O.D. 450 nm,[3]; [9],> 2.8
same,O.D. 450 nm,[3]; [10],> 2.8
same,O.D. 450 nm,[3]; [11],2.319
same,O.D. 450 nm,[3]; [12],1.433
same,O.D. 450 nm,[3]; [13],0.835
same,O.D. 450 nm,[3]; [14],0.455
same,O.D. 450 nm,[3]; [15],0.244
same,O.D. 450 nm,[3]; [16],0.156
same,O.D. 450 nm,[3]; [17],0.102
